Molecular target: T1, human PTH1 receptor (Homo sapiens, UniProt Q03431)
T1 sequence (Q03431 27-593): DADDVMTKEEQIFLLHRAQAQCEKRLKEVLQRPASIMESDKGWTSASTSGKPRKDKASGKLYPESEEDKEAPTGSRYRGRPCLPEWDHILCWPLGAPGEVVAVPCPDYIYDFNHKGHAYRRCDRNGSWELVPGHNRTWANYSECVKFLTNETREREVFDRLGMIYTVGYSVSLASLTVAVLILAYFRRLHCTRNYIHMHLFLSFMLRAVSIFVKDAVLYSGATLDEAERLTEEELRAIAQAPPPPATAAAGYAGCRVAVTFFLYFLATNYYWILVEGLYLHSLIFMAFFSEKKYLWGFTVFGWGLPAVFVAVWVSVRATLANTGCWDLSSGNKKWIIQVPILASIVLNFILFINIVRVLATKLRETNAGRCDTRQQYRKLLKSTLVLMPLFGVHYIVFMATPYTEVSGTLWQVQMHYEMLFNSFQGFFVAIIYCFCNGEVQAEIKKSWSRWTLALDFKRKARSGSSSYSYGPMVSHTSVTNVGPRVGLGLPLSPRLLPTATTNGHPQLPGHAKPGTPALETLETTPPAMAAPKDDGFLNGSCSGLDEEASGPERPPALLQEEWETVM
Test: In vitro cAMP signal activity in HKRK-B7 cells (LLC-PK1 cells overexpressing the human PTH1 receptor)
Format: cell-based
Settings: HKRK-B7 cells; compound at 1×10^−3 M; cAMP produced as percentage of that produced by hPTH(1-34) at 100 nM

Q: For `O=C1NC(C2CCCCC2)=NC12CCN(S(=O)(=O)/C=C/c1cccc(F)c1C(F)(F)F)CC2` [Compound 185, 2-cyclohexyl-8-[(E)-2-(3-fluoro-2-trifluoromethyl-phenyl)-ethenesulfonyl]-1,3,8-triaza-spiro[4.5]dec-1-en-4-one], which “cAMP production activity (%)” value is on record?
A: The value was 33%.

Q: Which “cAMP production activity (%)” value does the source give for `CCCCC1CCC(NC2=NC3(CCN(S(=O)(=O)CCc4ccc(C(=O)N(C)C)cc4C)CC3)C(=O)N2)CC1` (stereo not drawn) [Compound 1404, 4-{2-[2-(4-butyl-cyclohexylamino)-4-oxo-1,3,8-triaza-spiro[4.5]dec-1-ene-8-sulfonyl]-ethyl}-3,N,N-trimethyl-benzamide] here?
A: The value was 64%.

Q: How did the “cAMP production activity (%)” value turn out when `Cc1cc(C(=O)N2CCC(O)CC2)ccc1CCS(=O)(=O)N1CCC2(CC1)N=C(c1cccc(OC(F)(F)F)c1)NC2=O` [Compound 285, 8-{2-[4-(4-hydroxy-piperidine-1-carbonyl)-2-methyl-phenyl]-ethanesulfonyl}-2-(3-trifluoromethoxy-phenyl)-1,3,8-triaza-spiro[4.5]dec-1-en-4-one] was run?
A: Its value is 65%.

Q: For `Cc1cc(C(=O)N2CCCO2)cc(C)c1/C=C/S(=O)(=O)N1CCC2(CC1)N=C(C1CCC(C)CC1)NC2=O` (stereo not drawn) [Compound 1001, 8-{(E)-2-[4-(isoxazolidine-2-carbonyl)-2,6-dimethyl-phenyl]-ethenesulfonyl}-2-(4-methyl-cyclohexyl)-1,3,8-triaza-spiro[4.5]dec-1-en-4-one], which “cAMP production activity (%)” value is on record?
A: The value was 64%.

Q: How did the “cAMP production activity (%)” value turn out when `Cc1cc(N(C)C(N)=O)ccc1CCS(=O)(=O)N1CCC2(CC1)N=C(c1cccc(OC(F)(F)F)c1)NC2=O` [Compound 301, 1-methyl-1-(3-methyl-4-{2-[4-oxo-2-(3-trifluoromethoxy-phenyl)-1,3,8-triaza-spiro[4.5]dec-1-ene-8-sulfonyl]-ethyl}-phenyl)-urea] was run?
A: Its value is 72%.

Q: Which “cAMP production activity (%)” value does the source give for `O=C1NC(C2CCC(CCC(F)(F)F)CC2)=NC12CCN(S(=O)(=O)CCc1cccc3c1ccn3C[C@@H](O)CO)CC2` (stereo partly drawn) [Compound 867, 8-{2-[1-((R)-2,3-dihydroxy-propyl)-1H-indol-4-yl]-ethanesulfonyl}-2-[4-(3,3,3-trifluoro-propyl)-cyclohexyl]-1,3,8-triaza-spiro[4.5]dec-1-en-4-one] here?
A: Its value is 71%.

Q: How did the “cAMP production activity (%)” value turn out when `Cc1cc(N(C)C(N)=O)cc(C)c1/C=C/[S@TB3](=O)(=O)N1CCC2(CC1)N=C(c1ccc(CCCCCC(F)(F)F)cc1)NC2=O` [Compound 1117, 1-[3,5-dimethyl-4-((E)-2-{4-oxo-2-[4-(6,6,6-trifluoro-hexyl)-phenyl]-1,3,8-triaza-spiro[4.5]dec-1-ene-8-sulfonyl}-vinyl)-phenyl]-1-methyl-urea] was run?
A: The value was 88%.

Q: For `[2H]C([2H])([2H])N(C(=O)OC(C)(C)C)c1cc(C)c(/C=C/S(=O)(=O)N2CCC3(CC2)N=C(c2ccc(F)c(C(F)(F)F)c2)NC3=O)c(C)c1` [Compound 640, (4-{(E)-2-[2-(4-fluoro-3-trifluoromethyl-phenyl)-4-oxo-1,3,8-triaza-spiro[4.5]dec-1-ene-8-sulfonyl]-vinyl}-3,5-dimethyl-phenyl)-[1,1,1-^2H3]methyl-carbamic acid tert-butyl ester], which “cAMP production activity (%)” value is on record?
A: The value was 26%.

Q: With `CCCCCCCCCC1=NC2(CCN(S(=O)(=O)CCc3ccc(N4C(=O)CNC4=O)cc3C(F)(F)F)CC2)C(=O)N1` [Compound 795, 3-{4-[2-(2-nonyl-4-oxo-1,3,8-triaza-spiro[4.5]dec-1-ene-8-sulfonyl)-ethyl]-3-trifluoromethyl-phenyl}-imidazolidine-2,4-dione] as the molecule, how does the “cAMP production activity (%)” value read?
A: The value was 97%.

Q: How did the “cAMP production activity (%)” value turn out when `Cc1cc(N(C(N)=O)C2CCCC2)ccc1/C=C/S(=O)(=O)N1CCC2(CC1)N=C(c1cccc(OC(F)(F)F)c1)NC2=O` [Compound 730, 1-cyclopentyl-1-(3-methyl-4-{(E)-2-[4-oxo-2-(3-trifluoromethoxy-phenyl)-1,3,8-triaza-spiro[4.5]dec-1-ene-8-sulfonyl]-vinyl}-phenyl)-urea] was run?
A: The value was 74%.

Q: For `O=C1NC(C2CCCCC2)=NC12CCN(S(=O)(=O)/C=C/c1cc3cc[nH]c3cc1C(F)(F)F)CC2` [Compound 492, 2-cyclohexyl-8-[(E)-2-(6-trifluoromethyl-1H-indol-5-yl)-ethenesulfonyl]-1,3,8-triaza-spiro[4.5]dec-1-en-4-one], which “cAMP production activity (%)” value is on record?
A: The value was 37%.

Q: With `N#Cc1c[nH]c2cccc(CCS(=O)(=O)N3CCC4(CC3)N=C(C3CCCCC3)NC4=O)c12` [Compound 646, 4-[2-(2-cyclohexyl-4-oxo-1,3,8-triaza-spiro[4.5]dec-1-ene-8-sulfonyl)-ethyl]-1H-indole-3-carbonitrile] as the molecule, how does the “cAMP production activity (%)” value read?
A: The value was 99%.

Q: For `O=C1NC(c2cccc(C(F)(F)F)c2)=NC12CCN(S(=O)(=O)c1cccc(Cl)c1)CC2` [Compound 31, 8-(3-chloro-benzenesulfonyl)-2-(3-trifluoromethyl-phenyl)-1,3,8-triaza-spiro[4.5]dec-1-en-4-one], which “cAMP production activity (%)” value is on record?
A: Its value is 41%.

Q: Which “cAMP production activity (%)” value does the source give for `CCCCC1CCN(C2=NC3(CCN(S(=O)(=O)CCc4ccc(C(=O)N(C)C)cc4C)CC3)C(=O)N2)CC1` [Compound 1403, 4-{2-[2-(4-Butyl-piperidin-1-yl)-4-oxo-1,3,8-triaza-spiro[4.5]dec-1-ene-8-sulfonyl]-ethyl}-3,N,N-trimethyl-benzamide] here?
A: Its value is 66%.

Q: How did the “cAMP production activity (%)” value turn out when `Cc1cc(C(=O)N2CCC(CO)CC2)cc(C)c1/C=C/S(=O)(=O)N1CCC2(CC1)N=C(c1ccc(F)c(OC(F)(F)F)c1)NC2=O` [Compound 1161, 2-(4-Fluoro-3-trifluoromethoxy-phenyl)-8-{(E)-2-[4-(4-hydroxymethyl-piperidine-1-carbonyl)-2,6-dimethyl-phenyl]-ethenesulfonyl}-1,3,8-triaza-spiro[4.5]dec-1-en-4-one] was run?
A: Its value is 84%.

Q: `CC(=O)N(CCN(C)C)c1cc(C)c(/C=C/S(=O)(=O)N2CCC3(CC2)N=C(c2cccc(OC(F)(F)F)c2)NC3=O)c(C)c1` [Compound 607, N-(2-dimethylamino-ethyl)-N-(3,5-dimethyl-4-{(E)-2-[4-oxo-2-(3-trifluoromethoxy-phenyl)-1,3,8-triaza-spiro[4.5]dec-1-ene-8-sulfonyl]-vinyl}-phenyl)-acetamide] was tested. Which “cAMP production activity (%)” value did it give?
A: Its value is 6.5%.

Q: With `Cc1cc(C(=O)N2CCC(C)(O)CC2)cc(C)c1/C=C/S(=O)(=O)N1CCC2(CC1)N=C(c1ccc(F)c(OCCCC(F)(F)F)c1)NC2=O` [Compound 1218, 2-[4-fluoro-3-(4,4,4-trifluoro-butoxy)-phenyl]-8-{(E)-2-[4-(4-hydroxy-4-methyl-piperidine-1-carbonyl)-2,6-dimethyl-phenyl]-ethenesulfonyl}-1,3,8-triaza-spiro[4.5]dec-1-en-4-one] as the molecule, how does the “cAMP production activity (%)” value read?
A: The value was 90%.

Q: `CCC1CCC(C2=NC3(CCN(S(=O)(=O)CCc4c(C)cc(N(C)C(N)=O)cc4C)CC3)C(=O)N2)CC1` (stereo not drawn) [Compound 732, 1-(4-{2-[2-(4-Ethyl-cyclohexyl)-4-oxo-1,3,8-triaza-spiro[4.5]dec-1-ene-8-sulfonyl]-ethyl}-3,5-dimethyl-phenyl)-1-methyl-urea] was tested. Which “cAMP production activity (%)” value did it give?
A: The value was 45%.

Q: `Cc1cc(NCCN(C)C)ccc1/C=C/S(=O)(=O)N1CCC2(CC1)N=C(C1CCCCC1)NC2=O` [Compound 497, 2-cyclohexyl-8-{(E)-2-[4-(2-dimethylamino-ethylamino)-2-methyl-phenyl]-ethenesulfonyl}-1,3,8-triaza-spiro[4.5]dec-1-en-4-one] was tested. Which “cAMP production activity (%)” value did it give?
A: The value was 38%.

Q: How did the “cAMP production activity (%)” value turn out when `Cc1cc(N(C)C(N)=O)cc(C)c1CCS(=O)(=O)N1CCC2(CC1)N=C(C1CCC(CC=C(F)F)CC1)NC2=O` (stereo not drawn) [Compound 940, 1-[4-(2-{2-[4-(3,3-difluoro-allyl)-cyclohexyl]-4-oxo-1,3,8-triaza-spiro[4.5]dec-1-ene-8-sulfonyl}-ethyl)-3,5-dimethyl-phenyl]-1-methyl-urea] was run?
A: Its value is 86%.

Q: For `Cc1cc(C(=O)N(C)C)ccc1CCS(=O)(=O)N1CCC2(CC1)N=C(c1cc(F)cc(C(F)(F)F)c1)NC2=O` [Compound 115, 4-{2-[2-(3-fluoro-5-trifluoromethyl-phenyl)-4-oxo-1,3,8-triaza-spiro[4.5]dec-1-ene-8-sulfonyl]-ethyl}-3,N,N-trimethyl-benzamide], which “cAMP production activity (%)” value is on record?
A: Its value is 81%.

Q: With `[2H]C([2H])([2H])C([2H])([2H])Oc1cc(C2=NC3(CCN(S(=O)(=O)/C=C/c4c(C)cc(C(=O)N5CCC(O)(CF)CC5)cc4C)CC3)C(=O)N2)ccc1F` [Compound 1272, 2-(3-[1,1,2,2,2-^2H5]ethoxy-4-fluoro-phenyl)-8-{(E)-2-[4-(4-fluoromethyl-4-hydroxy-piperidine-1-carbonyl)-2,6-dimethyl-phenyl]-ethenesulfonyl}-1,3,8-triaza-spiro[4.5]dec-1-en-4-one] as the molecule, how does the “cAMP production activity (%)” value read?
A: The value was 71%.

Q: `Cc1cc(N(C)C(N)=O)cc(C)c1/C=C/S(=O)(=O)N1CCC2(CC1)N=C(CCCCCCCCCc1ccccc1)NC2=O` [Compound 1365, 1-(3,5-Dimethyl-4-{(E)-2-[4-oxo-2-(9-phenyl-nonyl)-1,3,8-triaza-spiro[4.5]dec-1-ene-8-sulfonyl]-vinyl}-phenyl)-1-methyl-urea] was tested. Which “cAMP production activity (%)” value did it give?
A: The value was 108%.

Same assay, conditions: HKRK-B7 cells; compound at 1×10^−3 M; cAMP produced as percentage of that produced by hPTH(1-34) at 100 nM; 0.1 µM

Q: With `C#C[C@H]1CC[C@@H](C2=NC3(CCN(S(=O)(=O)CCc4ccc(NC(C)=O)cc4C)CC3)C(=O)N2)CC1` [Compound 1370, N-(4-{2-[2-(4-Ethynyl-cyclohexyl)-4-oxo-1,3,8-triaza-spiro[4.5]dec-1-ene-8-sulfonyl]-ethyl}-3-methyl-phenyl)-acetamide] as the molecule, how does the “cAMP production activity (%)” value read?
A: Its value is 64%.

— US9169254B2, “Spiroimidazolone derivative” (Chugai Seiyaku Kabushiki Kaisha, priority 2009, dated 2015)
